Laboratory results taken from patent US12221453B2, “Substituted pyrazolo[5′,1′:2,3]pyrimido[5,4-b][1,4]oxazines as TYK2 inhibitors” (TAKEDA PHARMACEUTICAL COMPANY LIMITED, priority 2018, dated 2025).

System: IL-12 induced STAT4 phosphorylation mediated by TYK2/JAK2
Assay: IL-12 induced pSTAT4 in human PBMC
Type: cell-based
Conditions: 1 hr compound, 1.7 ng/mL IL-12 for 30 minutes
Experimental: Human PBMC were isolated from buffy coat and are stored frozen for assays as needed. […] 15 μL of compound or DMSO was added to the well at the desired concentrations and incubated at 1 hr at 37° C. 15 μL of stimulus (final concentration of 1.7 ng/mL IL-12) was added for 30 minutes prior to pSTAT4 and total STAT4 analysis using cell lysates prepared and analyzed by MSD reagents as per manufacturer protocol. The final DMSO concentration of compound in the assay was 0.1%. The IL-12 induced pSTAT4 assay evaluates the inhibition of IL-12 induced STAT4 phosphorlyation mediated by TYK2/JAK2 ([…] complex).

IC50 [µM] | SMILES
< 0.1 | CNc1cc(Nc2cccn([C@H]3C[C@@H](OC)C3)c2=O)nc2c(C(=O)NC3CC[C@@H]3F)cnn12 (mixture of isomers) [Compound I-173]
< 0.1 | CNc1cc(Nc2cccn([C@H]3C[C@H](OC)C3)c2=O)nc2c(C(=O)NC3CC[C@@H]3F)cnn12 (mixture of isomers) [Compound I-176]
< 0.1 | CNc1cc(Nc2cccn([C@H]3C[C@@H]3F)c2=O)nc2c(C(=O)N[C@@H]3C[C@H]3OC)cnn12 [Compound I-133]
< 0.1 | CNc1cc(Nc2cccn([C@@H]3C[C@H]3F)c2=O)nc2c(C(=O)N[C@@H]3C[C@H]3OC)cnn12 [Compound I-135]
< 0.1 | CNc1cc(Nc2cccn([C@H]3C[C@H](F)C3)c2=O)nc2c(C(=O)N[C@H]3C[C@@H]3OC)cnn12 [Compound I-138]
< 0.1 | CNc1cc(Nc2cccn([C@H]3C[C@H](OC)C3)c2=O)nc2c(C(=O)NC3CCC3)cnn12 [Compound I-141]
< 0.1 | CNc1cc(Nc2cccn([C@H]3C[C@@H]3F)c2=O)nc2c(C(=O)N[C@H]3CC[C@@H]3F)cnn12 [Compound I-149]
< 0.1 | CNc1cc(Nc2cccn([C@@H]3C[C@H]3F)c2=O)nc2c(C(=O)NC3CC[C@@H]3F)cnn12 (some centres unmarked) [Compound I-151]
< 0.1 | CNc1cc(Nc2cccn([C@@H]3C[C@H]3OC)c2=O)nc2c(C(=O)N[C@H]3CC[C@@H]3F)cnn12 [Compound I-155]
< 0.1 | CNc1cc(Nc2cccn([C@H]3C[C@@H]3OC)c2=O)nc2c(C(=O)N[C@H]3CC[C@@H]3F)cnn12 [Compound I-158]
< 0.1 | CNc1cc(Nc2cccn(C3COC3)c2=O)nc2c(C(=O)NC3CC[C@H]3F)cnn12 (some centres unmarked) [Compound I-160]
< 0.1 | CNc1cc(Nc2cccn(C3COC3)c2=O)nc2c(C(=O)N[C@@H]3CC[C@@H]3F)cnn12 [Compound I-162]
< 0.1 | CNc1cc(Nc2cccn(C3COC3)c2=O)nc2c(C(=O)NC3CC[C@@H]3F)cnn12 (some centres unmarked) [Compound I-163]
< 0.1 | CNc1cc(Nc2cccn([C@H]3C[C@H](F)C3)c2=O)nc2c(C(=O)NC3CC[C@@H]3F)cnn12 (some centres unmarked) [Compound I-164]
< 0.1 | CNc1cc(Nc2cccn([C@H]3C[C@H](F)C3)c2=O)nc2c(C(=O)N[C@H]3CC[C@@H]3F)cnn12 [Compound I-165]
< 0.1 | CNc1cc(Nc2cccn([C@H]3CC[C@H]3O)c2=O)nc2c(C(=O)NC3CC[C@@H]3F)cnn12 (some centres unmarked) [Compound I-167]

IC50 [µM] | SMILES
< 0.1 | CNc1cc(Nc2cccn([C@H]3CC[C@H]3O)c2=O)nc2c(C(=O)N[C@@H]3CC[C@H]3F)cnn12 [Compound I-169]
< 0.1 | CNc1cc(Nc2cccn([C@H]3C[C@@H](OC)C3)c2=O)nc2c(C(=O)N[C@H]3CC[C@@H]3F)cnn12 [Compound I-174]
< 0.1 | CNc1cc(Nc2cccn([C@H]3C[C@H](OC)C3)c2=O)nc2c(C(=O)N[C@@H]3CC[C@H]3F)cnn12 [Compound I-178]
< 0.1 | CNc1cc(Nc2cccn(C3CCOCC3)c2=O)nc2c(C(=O)N[C@@H]3CC[C@@H]3F)cnn12 [Compound I-193]
< 0.1 | CNc1cc(Nc2cccn([C@@H]3CCCOC3)c2=O)nc2c(C(=O)NC3CC[C@@H]3F)cnn12 (some centres unmarked) [Compound I-194]
< 0.1 | CNc1cc(Nc2cccn([C@@H]3CCCOC3)c2=O)nc2c(C(=O)N[C@@H]3CC[C@H]3F)cnn12 [Compound I-196]
< 0.1 | CNc1cc(Nc2cccn([C@H]3CCCOC3)c2=O)nc2c(C(=O)NC3CC[C@@H]3F)cnn12 (some centres unmarked) [Compound I-197]
< 0.1 | CNc1cc(Nc2cccn([C@H]3CCCOC3)c2=O)nc2c(C(=O)N[C@H]3CC[C@@H]3F)cnn12 [Compound I-198]
< 0.1 | CNc1cc(Nc2cccn([C@@H]3CCOC[C@@H]3OC)c2=O)nc2c(C(=O)N[C@@H]3CC[C@H]3F)cnn12 [Compound I-217]
< 0.1 | CNc1cc(Nc2cccn([C@H]3CC[C@H](OC)CC3)c2=O)nc2c(C(=O)NC3CC[C@@H]3F)cnn12 (some centres unmarked) [Compound I-224]
< 0.1 | CNc1cc(Nc2cccn([C@H]3CC[C@H](OC)CC3)c2=O)nc2c(C(=O)N[C@H]3CC[C@@H]3F)cnn12 [Compound I-225]
< 0.1 | CNc1cc(Nc2cccn([C@@H]3CCC[C@@H](OC)C3)c2=O)nc2c(C(=O)NC3CC[C@@H]3F)cnn12 (some centres unmarked) [Compound I-227]
< 0.1 | CNc1cc(Nc2cccn([C@@H]3CCC[C@@H](OC)C3)c2=O)nc2c(C(=O)N[C@H]3CC[C@@H]3F)cnn12 [Compound I-228]
< 0.1 | CNc1cc(Nc2cccn([C@H]3CCC[C@H](OC)C3)c2=O)nc2c(C(=O)NC3CC[C@@H]3F)cnn12 (some centres unmarked) [Compound I-230]
< 0.1 | CNc1cc(Nc2cccn([C@H]3CCC[C@H](OC)C3)c2=O)nc2c(C(=O)N[C@H]3CC[C@@H]3F)cnn12 [Compound I-231]
< 0.1 | CNc1cc(Nc2cccn([C@@H]3CCOC[C@@H]3OC)c2=O)nc2c(C(=O)N[C@@H]3CC[C@@H]3F)cnn12 [Compound I-235]

Second part, the molecule before the results:

SMILES | IC50 [µM]
CNc1cc(Nc2cccn(C(C)C)c2=O)nc2c(C(=O)NC3CC[C@@H]3F)cnn12 (mixture of isomers) [Compound I-145] | < 0.1
CNc1cc(Nc2cccn(C3[C@H]4COC[C@@H]34)c2=O)nc2c(C(=O)NC3C[C@H]3OC)cnn12 (mixture of isomers) [I-24, 5-((1-((1R,5S,6r)-3-Oxabicyclo[3.1.0]hexan-6-yl)-2-oxo-1,2-dihydropyridin-3-yl)amino)-N-(2-methoxycyclopropyl)-7-(methylamino)pyrazolo[1,5-a]pyrimidine-3-carboxamide] | < 0.1
CNc1cc(Nc2cccn([C@@H]3CCC[C@](C)(OC)C3)c2=O)nc2c(C(=O)NC3CC3)cnn12 [Compound I-124] | < 0.1
CNc1cc(Nc2cccn(C3COC3)c2=O)nc2c(C(=O)N[C@@H]3C[C@@H]3F)cnn12 [Compound I-125] | < 0.1
CNc1cc(Nc2cccn([C@H]3CCC[C@@](C)(O)C3)c2=O)nc2c(C(=O)N[C@@H]3C[C@@H]3F)cnn12 [Compound I-129] | < 0.1
CNc1cc(Nc2cccn(C3CCC[C@@](C)(OC)C3)c2=O)nc2c(C(=O)N[C@@H]3C[C@@H]3F)cnn12 (some centres unmarked) [Compound I-130] | < 0.1
CNc1cc(Nc2cccn([C@@H]3CCC[C@](C)(OC)C3)c2=O)nc2c(C(=O)N[C@@H]3C[C@@H]3F)cnn12 [Compound I-131] | < 0.1
CNc1cc(Nc2cccn(C3CC(F)(F)C3)c2=O)nc2c(C(=O)N[C@@H]3C[C@H]3OC)cnn12 [Compound I-139] | < 0.1
CNc1cc(Nc2cccn([C@H]3[C@@H]4COC[C@@H]43)c2=O)nc2c(C(=O)NC3CCC3)cnn12 [Compound I-142] | < 0.1
CNc1cc(Nc2cccn(C3CCOCC3)c2=O)nc2c(C(=O)NC3CCC3)cnn12 [Compound I-143] | < 0.1
CNc1cc(Nc2cccn(-c3ocnc3C)c2=O)nc2c(C(=O)NC3CCC3)cnn12 [Compound I-144] | < 0.1
CNc1cc(Nc2cccn(C(C)C)c2=O)nc2c(C(=O)N[C@@H]3CC[C@H]3F)cnn12 [Compound I-147] | < 0.1
CNc1cc(Nc2cccn([C@@H]3CCC[C@@H]3O)c2=O)nc2c(C(=O)NC3CC[C@@H]3F)cnn12 (some centres unmarked) [Compound I-179] | < 0.1
CNc1cc(Nc2cccn([C@@H]3CCC[C@@H]3O)c2=O)nc2c(C(=O)N[C@@H]3CC[C@H]3F)cnn12 [Compound I-181] | < 0.1
CNc1cc(Nc2cccn(-c3ocnc3C)c2=O)nc2c(C(=O)NC3CC[C@@H]3F)cnn12 (some centres unmarked) [Compound I-185] | < 0.1
CNc1cc(Nc2cccn(-c3ocnc3C)c2=O)nc2c(C(=O)N[C@H]3CC[C@@H]3F)cnn12 [Compound I-186] | < 0.1
CNc1cc(Nc2cccn(C3CCOCC3)c2=O)nc2c(C(=O)NC3CC[C@@H]3F)cnn12 (some centres unmarked) [Compound I-188] | < 0.1
CNc1cc(Nc2cccn(C3CCOCC3)c2=O)nc2c(C(=O)N[C@@H]3CC[C@H]3F)cnn12 [Compound I-190] | < 0.1
CNc1cc(Nc2cccn(C3CCOCC3)c2=O)nc2c(C(=O)NC3CC[C@H]3F)cnn12 (some centres unmarked) [Compound I-191] | < 0.1
CNc1cc(Nc2cccn(C3CCOCC3)c2=O)nc2c(C(=O)N[C@H]3CC[C@H]3F)cnn12 [Compound I-192] | < 0.1
CNc1cc(Nc2cccn(-c3ccccn3)c2=O)nc2c(C(=O)NC3CC[C@@H]3F)cnn12 (some centres unmarked) [Compound I-200] | < 0.1
CNc1cc(Nc2cccn(-c3ccccn3)c2=O)nc2c(C(=O)N[C@H]3CC[C@@H]3F)cnn12 [Compound I-201] | < 0.1
CNc1cc(Nc2cccn([C@H]3[C@@H]4COC[C@@H]43)c2=O)nc2c(C(=O)NC3CC[C@H]3F)cnn12 (some centres unmarked) [Compound I-203] | < 0.1
CNc1cc(Nc2cccn([C@H]3[C@@H]4COC[C@@H]43)c2=O)nc2c(C(=O)N[C@H]3CC[C@H]3F)cnn12 [Compound I-204] | < 0.1
CNc1cc(Nc2cccn([C@H]3[C@@H]4COC[C@@H]43)c2=O)nc2c(C(=O)N[C@@H]3CC[C@@H]3F)cnn12 [Compound I-205] | < 0.1
CNc1cc(Nc2cccn([C@H]3[C@@H]4COC[C@@H]43)c2=O)nc2c(C(=O)NC3CC[C@@H]3F)cnn12 (some centres unmarked) [Compound I-206] | < 0.1
CNc1cc(Nc2cccn([C@H]3[C@@H]4COC[C@@H]43)c2=O)nc2c(C(=O)N[C@@H]3CC[C@H]3F)cnn12 [Compound I-208] | < 0.1
CNc1cc(Nc2cccn([C@@H]3CCCC[C@@H]3O)c2=O)nc2c(C(=O)NC3CC[C@@H]3F)cnn12 (some centres unmarked) [Compound I-209] | < 0.1
CNc1cc(Nc2cccn([C@@H]3CCCC[C@@H]3O)c2=O)nc2c(C(=O)N[C@@H]3CC[C@H]3F)cnn12 [Compound I-211] | < 0.1
CNc1cc(Nc2cccn([C@H]3CCCC[C@H]3O)c2=O)nc2c(C(=O)N[C@@H]3CC[C@H]3F)cnn12 [Compound I-214] | < 0.1
